Results reported in the NIST ThermoML archive (doi:10.1016/j.fluid.2014.03.008).
± gives the expanded uncertainty stated by the source.

Key:
[1] = refractive index (Na D-line) (dimensionless); conditions: 101.33 kPa, Liquid, Standard Abbe refractometry
[2] = Liquid; for mass density: 101.33 kPa, Vibrating tube method; for Normal boiling temperature: Ebulliometric method (Recirculating still)

Compound	refractive index ([1]; 293.15 K)	mass density ([2]; 293.15 K)	Normal boiling temperature [2]	mass density ([2]; 298.15 K)	refractive index ([1]; 298.15 K)
CCOC(=O)CC(=O)OCC [diethyl 1,3-propanedioate]	1.4135 ± 0.012	1055.25 ± 0.95 kg/m3	199.90 ± 0.2 °C	–	–
CCCCC(=O)OCC [ethyl pentanoate]	1.4125 ± 0.012	877.15 ± 0.24 kg/m3	146.2 ± 0.2 °C	–	–
CCCCCCCCO [octan-1-ol]	1.428 ± 0.012	–	195.1 ± 0.2 °C	825.95 ± 0.24 kg/m3	–

Further lines, results first:

refractive index ([1]; 293.15 K)	mass density ([2]; 293.15 K)	Normal boiling temperature [2]	mass density ([2]; 298.15 K)	refractive index ([1]; 298.15 K)	Compound
1.5361 ± 0.012	1027.9 ± 0.9 kg/m3	202.0 ± 0.2 °C	–	–	CC(=O)c1ccccc1 [acetophenone]
1.3982 ± 0.012	–	163.7 ± 0.2 °C	952.6 ± 0.24 kg/m3	–	CCCC(=O)O [butanoic acid]
–	–	121.40 ± 0.2 °C	873.25 ± 0.7 kg/m3	1.3891 ± 0.012	CCCC(=O)OCC [ethyl butanoate]
1.3325 ± 0.012	999.7 ± 0.08 kg/m3	100.10 ± 0.2 °C	–	–	O [water]
